From ChEMBL document CHEMBL1155602, “Three new scalarane sesterterpenoids from the Okinawan sponge Hyrtios erectus” (J Nat Prod, 2000)
In brackets after ≈: the same amount, converted by molar mass.

Tested on: KB
Experiment: Antiproliferative activity against human KB cells
Format: functional, cell-based

IC50: 2.82 µg/mL (≈ 7.86 µM)
SMILES: CC1(C)CCC[C@]2(C)[C@H]3C[C@@H](O)[C@]4(C)C=C(C=O)CC[C@H]4[C@]3(C)CC[C@@H]12
